# Tests used:
# [1] = tested on: iCell cardiomyocytes (human iPSC-derived cardiomyocytes); assay: High-content imaging of cytotoxicity and mitochondrial integrity in iPSC-CMs; type: cell-based; settings: 0.00 µM = 100.00
# Outline: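 This assay measured cytotoxicity and mitochondrial integrity in iPSC cardiomyocytes held in 40μL maintenance medium. After compound exposure, a 2× staining solution with Hoechst 33342 (4μg/mL) and MitoTracker™ Orange (0.4μM) was applied for 15 min at 37°C. Cells were washed, fixed with 3.7% formaldehyde, imaged on DAPI and Cy3 channels, and scored in MetaXpress®.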
# [2] = tested on: HUVECs; assay: High-content imaging cytotoxicity in HUVECs, 24 h; type: cell-based, human; settings: HUVECs, 24 hr, 0.00 µM = 100.00
# Outline: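 Confluent HUVEC monolayers, passages 1–5, received test chemicals for 24 h. Cytotoxicity was scored from triple-stain high-content images, with PODs defined by a one-SD deviation from 0.5% DMSO vehicle controls.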
smiles,measurement,setting,value
"Clc1ccc(Cl)c(-c2c(Cl)ccc(Cl)c2Cl)c1Cl [(-)-PCB 136, 2,2′,3,3′,6,6′-hexachlorobiphenyl]",cm.mii.90min,[1]; 0.01 µM,112.68
same,cm.mito.90min,[1]; 0.01 µM,96.45
same,cm.mii.24hrs,[1]; 0.01 µM,102.85
same,cm.mito.24hrs,[1]; 0.01 µM,101.32
same,cm.mii.90min,[1]; 0.10 µM,114.32
same,cm.mito.90min,[1]; 0.10 µM,99.06
same,cm.mii.24hrs,[1]; 0.10 µM,75.71
same,cm.mito.24hrs,[1]; 0.10 µM,97.62
same,cm.mii.90min,[1]; 1.00 µM,108.72
same,cm.mito.90min,[1]; 1.00 µM,99.64
same,cm.mii.24hrs,[1]; 1.00 µM,98.56
same,cm.mito.24hrs,[1]; 1.00 µM,95.39
same,cm.mii.90min,[1]; 10.00 µM,109.00
same,cm.mito.90min,[1]; 10.00 µM,96.91
same,cm.mii.24hrs,[1]; 10.00 µM,82.93
same,cm.mito.24hrs,[1]; 10.00 µM,97.40
same,cm.mii.90min,[1]; 100.00 µM,5.98
same,cm.mito.90min,[1]; 100.00 µM,0.07
same,cm.mii.24hrs,[1]; 100.00 µM,87.76
same,cm.mito.24hrs,[1]; 100.00 µM,0.79
same,huvec.mito.24hr,[2]; concentration 0.01 µM,77.23
same,huvec.mitoint.24hr,[2]; concentration 0.01 µM,84.43
same,huvec.nma.24hr,[2]; concentration 0.01 µM,98.77
same,huvec.mito.24hr,[2]; concentration 0.10 µM,130.40
same,huvec.mitoint.24hr,[2]; concentration 0.10 µM,73.90
same,huvec.nma.24hr,[2]; concentration 0.10 µM,86.45
same,huvec.mito.24hr,[2]; concentration 1.00 µM,92.50
same,huvec.mitoint.24hr,[2]; concentration 1.00 µM,88.05
same,huvec.nma.24hr,[2]; concentration 1.00 µM,99.68
same,huvec.mito.24hr,[2]; concentration 10.00 µM,30.92
same,huvec.mitoint.24hr,[2]; concentration 10.00 µM,10.83
same,huvec.nma.24hr,[2]; concentration 10.00 µM,50.44
same,huvec.mito.24hr,[2]; concentration 100.00 µM,29.50
same,huvec.mitoint.24hr,[2]; concentration 100.00 µM,15.66
same,huvec.nma.24hr,[2]; concentration 100.00 µM,72.40

# From publication PMC7377239, “Cardiovascular Effects of Polychlorinated Biphenyls and Their Major Metabolites” (Environmental Health Perspectives, 2020)
